This data set concerns CCRIS mutagenicity, Ames/micronucleus/aberration tests. As to the kind of experiment: CCRIS mutagenicity studies.
The mark [1] stands for this setting: Test System: AMES SALMONELLA TYPHIMURIUM, Strain/Indicator: TA98, Metabolic Activation: NONE, Method: STANDARD PLATE.
The mark [2] stands for this setting: Test System: AMES SALMONELLA TYPHIMURIUM, Strain/Indicator: TA100, Metabolic Activation: NONE, Method: STANDARD PLATE.
[3] abbreviates: Test System: AMES SALMONELLA TYPHIMURIUM, Strain/Indicator: TA98, Metabolic Activation: NONE, Method: PREINCUBATION

The source made the active and inactive calls. The rule behind the calls is not given here.

Consider `CC(C)NCC(O)c1ccc(NS(C)(=O)=O)cc1` (stereo not drawn), for which the mutagenic call reads like this: (Test System: AMES SALMONELLA TYPHIMURIUM, Strain/Indicator: TA98, Metabolic Activation: NONE) “inactive; negative”; (Test System: AMES SALMONELLA TYPHIMURIUM, Strain/Indicator: TA98, Metabolic Activation: RAT, LIVER, S-9, AROCLOR 1254) “inactive; negative”; (Test System: AMES SALMONELLA TYPHIMURIUM, Strain/Indicator: TA100, Metabolic Activation: NONE) “inactive; negative”; (Test System: AMES SALMONELLA TYPHIMURIUM, Strain/Indicator: TA100, Metabolic Activation: RAT, LIVER, S-9, AROCLOR 1254) “inactive; negative”; (Test System: AMES SALMONELLA TYPHIMURIUM, Strain/Indicator: TA1535, Metabolic Activation: NONE) “inactive; negative”; (Test System: AMES SALMONELLA TYPHIMURIUM, Strain/Indicator: TA1535, Metabolic Activation: RAT, LIVER, S-9, AROCLOR 1254) “inactive; negative”. In addition, the mutagenic call is, setting by setting: (Test System: AMES SALMONELLA TYPHIMURIUM, Strain/Indicator: TA1537, Metabolic Activation: NONE) “inactive; negative”; (Test System: AMES SALMONELLA TYPHIMURIUM, Strain/Indicator: TA1537, Metabolic Activation: RAT, LIVER, S-9, AROCLOR 1254) “inactive; negative”; (Test System: UDS HUMAN HEPATOCYTES, Strain/Indicator: THY INCORP, Metabolic Activation: NONE, Method: AUTORADIOGRAPHY) “inactive; negative”; (Test System: UDS RAT HEPATOCYTES, Strain/Indicator: THY INCORP, Metabolic Activation: NONE, Method: AUTORADIOGRAPHY) “inactive; negative”.
Turning to `O=[N+]([O-])c1ccc2ccc3ccccc3c2c1`, the mutagenic call reads like this: (Test System: AMES SALMONELLA TYPHIMURIUM, Strain/Indicator: TA98(1,8-DNP6), Metabolic Activation: NONE, Method: STANDARD PLATE) “active; positive”; (Test System: AMES SALMONELLA TYPHIMURIUM, Strain/Indicator: TA98(NR), Metabolic Activation: NONE, Method: STANDARD PLATE) “active; positive”; under setting [1], “active; positive”; under setting [2], “active; positive”; (Test System: AMES SALMONELLA TYPHIMURIUM, Strain/Indicator: TA7001, Metabolic Activation: NONE, Method: PREINCUBATION) “active; positive”; (Test System: AMES SALMONELLA TYPHIMURIUM, Strain/Indicator: TA7002, Metabolic Activation: NONE, Method: PREINCUBATION) “active; positive”. The mutagenic call (Test System: AMES SALMONELLA TYPHIMURIUM, Strain/Indicator: TA7003, Metabolic Activation: NONE, Method: PREINCUBATION) is “active; positive”; the mutagenic call (Test System: AMES SALMONELLA TYPHIMURIUM, Strain/Indicator: TA7004, Metabolic Activation: NONE, Method: PREINCUBATION) was “active; positive”; the mutagenic call (Test System: AMES SALMONELLA TYPHIMURIUM, Strain/Indicator: TA7005, Metabolic Activation: NONE, Method: PREINCUBATION) is “active; positive”; the mutagenic call (Test System: AMES SALMONELLA TYPHIMURIUM, Strain/Indicator: TA7006, Metabolic Activation: NONE, Method: PREINCUBATION) was “active; positive”; the mutagenic call (Test System: AMES SALMONELLA TYPHIMURIUM, Strain/Indicator: YG1021, Metabolic Activation: NONE, Method: STANDARD PLATE) is “active; positive”; the mutagenic call (Test System: AMES SALMONELLA TYPHIMURIUM, Strain/Indicator: YG1024, Metabolic Activation: NONE, Method: STANDARD PLATE) is “active; positive”. Besides, the mutagenic call is, setting by setting: (Test System: AMES SALMONELLA TYPHIMURIUM, Strain/Indicator: YG1026, Metabolic Activation: NONE, Method: STANDARD PLATE) “active; positive”; (Test System: AMES SALMONELLA TYPHIMURIUM, Strain/Indicator: YG1029, Metabolic Activation: NONE, Method: STANDARD PLATE) “active; positive”.
Turning to `CCCCCCCCCCCCCCCc1cccc(O)c1C(=O)O`, under “End Point: In vivo micronucleus, Test System: Peripheral blood erythrocytes, Species: Mouse, Strain/Sex: CD-1, Route: Oral”, the mutagenic call was “inactive; negative”.
As to `O=Nc1c(O)ccc2ccccc12`, the mutagenic call under setting [3] is “inactive; negative”.
For `COc1c(C=O)c(O)cc2c1C(=O)c1ccccc1C2=O`, the mutagenic call is, setting by setting: under setting [3], “inactive; negative”; (Test System: AMES SALMONELLA TYPHIMURIUM, Strain/Indicator: TA98, Metabolic Activation: RAT, LIVER, S-9, PCB, Method: PREINCUBATION) “inactive; negative”; (Test System: AMES SALMONELLA TYPHIMURIUM, Strain/Indicator: TA100, Metabolic Activation: NONE, Method: PREINCUBATION) “inactive; negative”; (Test System: AMES SALMONELLA TYPHIMURIUM, Strain/Indicator: TA100, Metabolic Activation: RAT, LIVER, S-9, PCB, Method: PREINCUBATION) “inactive; negative”.
Turning to `CCCN(N)CCC`, the mutagenic call is “active; positive” (Test System: AMES SALMONELLA TYPHIMURIUM, Strain/Indicator: TA100, Metabolic Activation: NONE, Method: PREINCUBATION (11 HR GROWTH PERIOD FOR BACTERIA)); “inactive; negative” (Test System: AMES SALMONELLA TYPHIMURIUM, Strain/Indicator: TA100, Metabolic Activation: RAT, LIVER, S-9, PCB, Method: PREINCUBATION (11 HR GROWTH PERIOD FOR BACTERIA)); “active; positive” (Test System: AMES SALMONELLA TYPHIMURIUM, Strain/Indicator: TA102, Metabolic Activation: NONE, Method: PREINCUBATION (5 OR 7 HR GROWTH PERIOD FOR BACTERIA)); “inactive; negative” (Test System: AMES SALMONELLA TYPHIMURIUM, Strain/Indicator: TA102, Metabolic Activation: RAT, LIVER, S-9, PCB, Method: PREINCUBATION (5 OR 7 HR GROWTH PERIOD FOR BACTERIA)).
Turning to `CCC1(CC(=O)O)OCCc2c1[nH]c1c(C)cccc21` (stereo not drawn), the mutagenic call under setting [1] is “inactive; negative”; the mutagenic call (Test System: AMES SALMONELLA TYPHIMURIUM, Strain/Indicator: TA98, Metabolic Activation: RAT, LIVER, S-9, Method: STANDARD PLATE) is “inactive; negative”; the mutagenic call under setting [2] is “inactive; negative”; the mutagenic call (Test System: AMES SALMONELLA TYPHIMURIUM, Strain/Indicator: TA100, Metabolic Activation: RAT, LIVER, S-9, Method: STANDARD PLATE) is “inactive; negative”; the mutagenic call (Test System: AMES SALMONELLA TYPHIMURIUM, Strain/Indicator: TA1535, Metabolic Activation: NONE, Method: STANDARD PLATE) was “inactive; negative”; the mutagenic call (Test System: AMES SALMONELLA TYPHIMURIUM, Strain/Indicator: TA1535, Metabolic Activation: RAT, LIVER, S-9, Method: STANDARD PLATE) was “inactive; negative”. Further, the mutagenic call is “inactive; negative” (Test System: AMES SALMONELLA TYPHIMURIUM, Strain/Indicator: TA1537, Metabolic Activation: NONE, Method: STANDARD PLATE); “inactive; negative” (Test System: AMES SALMONELLA TYPHIMURIUM, Strain/Indicator: TA1537, Metabolic Activation: RAT, LIVER, S-9, Method: STANDARD PLATE); “inactive; negative” (Test System: E. COLI, Strain/Indicator: WP2 UVRA, Metabolic Activation: NONE, Method: STANDARD PLATE); “inactive; negative” (Test System: E. COLI, Strain/Indicator: WP2 UVRA, Metabolic Activation: RAT, LIVER, S-9, Method: STANDARD PLATE).
As to `C(=N\NC1=NCCN1)/c1c2ccccc2c(/C=N/NC2=NCCN2)c2ccccc12`, the mutagenic call is, setting by setting: (Test System: AMES SALMONELLA TYPHIMURIUM, Strain/Indicator: TA97A, Metabolic Activation: NONE, Method: STANDARD PLATE) “active; positive”; under setting [1], “active; positive”; (Test System: AMES SALMONELLA TYPHIMURIUM, Strain/Indicator: TA1538, Metabolic Activation: NONE, Method: STANDARD PLATE) “active; positive”.
`Cc1cnc2cc3nc(C)n(C)c3c(C)c2n1`: the mutagenic call (Test System: AMES SALMONELLA TYPHIMURIUM, Strain/Indicator: TA98, Metabolic Activation: S-9, Method: PREINCUBATION) is “inactive; negative”.
